Source: US8536337B2, “Solid forms of methyl (7aS,2′S)-2-(2-chlorophenyl)-2-(2,4,5,6,7,7a-hexahydrothieno[3,2-c]-5-pyridin-2-one)acetate” (IPCA Laboratories Limited, priority 2012, dated 2013)
Counter-ions that a name gives are not always drawn. Like-named read-outs stand apart in the source and are kept apart here.

Legend:
[1] = test system: recurrent ischemic events / major bleeding events; details: cited from earlier work
[2] = Stability of the isolated isomer against conversion into mixture of isomers (keto-enol tautomerism); format: physicochemical; details: normal conditions, even in solutions
Excerpt: The present invention is realized by way of preferential stereoselective crystallization of one of the isomer {(7aS,2′S)-isomer} from a mixture of isomers with or without dynamic conversion of counter stereo-isomer {(7aR,2′S)-isomer} through enol form. 2-oxo-clopidogrel can exists in three isomeric forms, namely structures of formula II, Formula VI and Formula VII. […] Once the double bond in the ring flips between the tetrahydropyridine nucleus and the thiophene ring, it destroys the chiral centre at 7a position, especially during its formation, resulting in mixture of isomers. Therefore, to date, there are no reports available to exclusively isolate one of the isomer selectively. […] The compounds of the present invention are substantially free of other isomers for example, compound of Formula VI, and Formula VII, apart from isomer of Formula IIB. Substantially free herein means the levels of these compounds individually or cumulatively are less than 10%, preferably less than, 5%, more preferably less than 3%, still more preferably, less than 1.0%.

[3] = test system: ADP induced platelet aggregation; assay: Measurement of platelet aggregation with ADP, ex vivo whole blood impedance aggregometry after oral dosing; format: in vivo, rat; details: SD rats, blood 4 h after dosing, 10 μM ADP; for % aggregation: vehicle control = 100%
Method: Measurement of Platelet Aggregation with ADP
The activity on the aggregation of plates induced by ADP or collagen was determined ex-vivo.
The products as a suspension in 5% Gum Arabica (aq.) were administered by oral route to groups of six male rats of the SD strain, weighing 250-300 g. After 4 hours of the administration, 2 ml of blood is collected into the heparinized tubes by puncture of retro-orbital sinus. 0.5 ml of the anticoagulated blood is diluted with an equal volume of isotonic saline solution and incubated at 37° C. for 10 minutes. To the incubated whole blood, 10 μM ADP is added and the change in impedance (Ω), which reflects platelet aggregation, is recorded for 8 minutes with Chronolog Whole Blood Aggregometer (Model 592, Chrono-log Corp., USA). The percentage inhibition of platelet aggregation is calculated by the following formula considering the vehicle control reading as 100%:

[4] = test system: FeCl3 induced arterial thrombus formation (common carotid artery); assay: FeCl3 induced Arterial Thrombosis Model; format: in vivo, rat; details: SD rats, 30% FeCl3 1 hour post dosing
Method: 2. Anti-Thrombotic Activity
The antithrombotic activity has also been studied in FeCl3 induced Arterial Thrombosis Model according to standard procedures reported by William A. Schumacher et al., 2007 (Journal of Pharmacology and Experimental Therapeutics, 322 (I): 369-377) and Takao Tanaka et al. 2000 (European Journal of Pharmacology, 401: 413-418).
The products were dissolved in DMSO (1 mg/ml) and diluted in PEG/Water (Ratio: DMSO:PEG:Water=5:50:45), and were administered by the per oral mute to groups of 8 male rats of the SD strain, weighing 250-300 g after overnight fast. 1 hour post dosing, rats were anesthetized with Ketamine (100 mg/kg; i.p.), Xylazine (10 mg/kg; i.p) and placed on a heating pad. After aseptic preparation of the tracheal and scapular region of the rats, a midline incision of the tracheal area was made and a blunt dissection was performed to expose the common carotid artery. Approximately 2 cm of the common carotid artery was freed from the connective tissues, jugular veins, and vagus nerve and a ˜3 mm filter paper, briefly soaked in 30% FeCl3 solution, was placed around the artery for 10 min. The artery was isolated after 15 mins of the removal of filter paper and the rat was euthanized. Thrombus developed was scraped out from the extracted artery and kept for drying for 24 hours. The wet and dry weight of thrombus was recorded and expressed as mg weight of thrombus per kg body weight. % inhibition of the thrombus formation is calculated using the formula: […]

rat = details: in rat; cited from earlier work
[5] = test system: ADP induced platelet aggregation; details: cited from earlier work; for time until 50% inhibition of ADP induced platelet aggregation is reached: LTA, 5 μM ADP ex-vivo
[6] = cited from earlier work
[7] = patients at high risk of vascular events
[8] = 2.2 mg/kg p.o. (1.98 mg/kg base)
[9] = 1.3 mg/kg p.o. (1.17 mg/kg base)
[10] = combined with Aspirin therapy in patients with ACS

CC(=O)Oc1ccccc1C(=O)O [Aspirin]
Absolute risk increase (ARI), major bleeding events [1, 7]: about 0.5%
absolute risk reduction (ARR), recurrent ischemic events [1, 7]: about 2%
increase in the odds of major bleeding events [1, 7]: about 60%
reduction of the risk of recurrent ischemic events [1, 7]: 22%

COC(=O)C(c1ccccc1Cl)N1CCC2SC(=O)C=C2C1 [(7aS,2′S)-2-oxoclopidogrel, Methyl (7aS,2′S)-2-(2-chlorophenyl)-2-(2,4,5,6,7,7a-hexahydrothieno[3,2-c]-5-pyridin-2-one)acetate]
stability against conversion into mixture of isomers [2]: stable and resistant to conversion into mixture

CC(=O)Oc1cc2c(s1)CCN(C(C(=O)C1CC1)c1ccccc1F)C2 (stereo not drawn) [Prasugrel hydrochloride]
% aggregation ([3]; 2.2 mg/kg p.o. (2 mg/kg base)): 18.93%
inhibition at 2.2 mg/kg ([3]; Rattus norvegicus, Platelet, po, 2.2 mg/kg p.o. (2 mg/kg base)): 81.1%

COC(=O)[C@H](c1ccccc1Cl)N1CCc2sccc2C1 [Clopidogrel bisulphate]
% Inhibition of Thrombus Formation (Mean ± SEM) ([4]; 4 mg/kg p.o. (3.06 mg/kg base)): 73 ± 5.3%
Dry weight of Thrombus (mg/kg) (Mean ± SEM) ([4]; 4 mg/kg p.o. (3.06 mg/kg base)): 1.10 ± 0.2 mg/kg
% aggregation ([3]; 25 mg/kg p.o. (19.15 mg/kg base)): 22.85%
inhibition at 25 mg/kg ([3]; Rattus norvegicus, Platelet, po, 25 mg/kg p.o. (19.15 mg/kg base)): 77.2%

COC(=O)[C@H](c1ccccc1Cl)N1CCC2SC(=O)C=C2C1.Cl (stereo partly drawn) [(2'S)-2-oxoclopidogrel hydrochloride]
% inhibition [3, 8]: 48.04%
% aggregation [3, 8]: 51.96%

COC(=O)C(c1ccccc1Cl)N1CCC2SC(=O)C=C2C1 [(7aS,2'S)-2-oxoclopidogrel bisulphate, Methyl (7aS,2′S)-2-(2-chlorophenyl)-2-(2,4,5,6,7,7a-hexahydrothieno[3,2-c]-5-pyridin-2-one)acetate hydrogen sulfate]
% Inhibition of Thrombus Formation (Mean ± SEM) [4, 9]: 76 ± 3.3%
Dry weight of Thrombus (mg/kg) (Mean ± SEM) [4, 9]: 0.98 ± 0.1 mg/kg
% aggregation ([3]; 2.5 mg/kg p.o. (1.9 mg/kg base)): 14.57%
% aggregation ([3]; 3.5 mg/kg p.o. (2.7 mg/kg base)): 9.14%
inhibition at 2.5 mg/kg ([3]; Rattus norvegicus, Platelet, po, 2.5 mg/kg p.o. (1.9 mg/kg base)): 85.4%
inhibition at 3.5 mg/kg ([3]; Rattus norvegicus, Platelet, po, 3.5 mg/kg p.o. (2.7 mg/kg base)): 90.9%

COC(=O)[C@H](c1ccccc1Cl)N1CCc2sccc2C1 [clopidogrel, (+)-(S)-methyl2-(2-chlorophenyl)-2-(6,7-dihydrothieno[3,2-c]pyridin-5(4H)-yl)acetate]
lethal dose (rat): about 5000 mg per kg
inhibition of ADP induced platelet aggregation ([5]; 900 mg, at 5 μM ADP): 60%
inhibition of platelet aggregation ([5]; 900 mg, induced by 20 μM of ADP (ex vivo)): less than 50%
time until 50% inhibition of ADP induced platelet aggregation is reached ([5]; dose 600 mg): 2 h
time until 50% inhibition of ADP induced platelet aggregation is reached ([5]; loading dose of 300 mg): 4 to 6 h
ARR, recurrent ischemic events [1, 10]: about 2.1%
further reduction of the risk of recurrent ischemic events [1, 10]: 20%
share converted to clopidogrel acid in vivo [6]: 90%
